Reference: paper PMC8795197, “Safety and activity of WX-0593 (Iruplinalkib) in patients with ALK- or ROS1-rearranged advanced non-small cell lung cancer: a phase 1 dose-escalation and dose-expansion trial” (Signal Transduction and Targeted Therapy, 2022)
Like-named read-outs stand apart in the source and are kept apart here.

How the values were obtained:
[1] = tested on: Ba/F3 SLC34A2-ROS1-G2032R; experiment: Growth of transfected Ba/F3 cells (CellTiter-Glo, 3 days); type: cell-based; settings: Mus musculus, BaF3
Protocol: (§1) Harvest cells during the logarithmic growth period and count cells using blood counting chamber. Adjust cell concentration with culture medium. Add 90µl cell suspensions to two 96-well plates to the final cell density as described before. Incubate the plate overnight in humidified incubator at 37℃ with 5% CO2. Dispense 10µl drug solution (10×) to each well (triplicate for each concentration), and the DMSO final concentration in culture medium is 0.1% [v/v]. Culture the plates for 3 days.On Day 3, Read luminescent using Multi Label Reader. The software of GraphPad Prism was used to calculate IC50. The graphical curves were fitted using a nonlinear regression model with a sigmoidal dose response.

Ba/F3 CD74-ROS1-S1986Y = experiment: as above; type: cell-based; settings: Mus musculus, BaF3
Protocol: as §1

Ba/F3 CD74-ROS1-D2033N = experiment: as above; type: cell-based; settings: Mus musculus, BaF3
Protocol: as §1

[2] = tested on: Ba/F3 SLC34A2-ROS1-L2026M; experiment: as above; type: cell-based; settings: Mus musculus, BaF3
Protocol: as §1

Ba/F3 SLC34A2-ROS1 = experiment: as above; type: cell-based; settings: Mus musculus, BaF3
Protocol: as §1

Ba/F3 CD74-ROS1-L1951R = experiment: as above; type: cell-based; settings: Mus musculus, BaF3
Protocol: as §1

Ba/F3 CD74-ROS1-S1986F = experiment: as above; type: cell-based; settings: Mus musculus, BaF3
Protocol: as §1

[3] = tested on: patients treated with ALK TKIs; settings: cited from earlier work
[4] = tested on: NSCLC patients with ALK or ROS1 rearrangement; settings: cited from earlier work
Ba/F3 ALK-G1202del = experiment: Growth of transfected Ba/F3 cells (CellTiter-Glo, 3 days); type: cell-based; settings: Mus musculus, BaF3
Protocol: as §1, with “days. On” for “days.On”

Ba/F3 ALK-WT = experiment: as above; type: cell-based; settings: Mus musculus, BaF3
Protocol: as §1, with “days. On” for “days.On”

Ba/F3 ALK-C1156Y = experiment: as above; type: cell-based; settings: Mus musculus, BaF3
Protocol: as §1, with “days. On” for “days.On”

Ba/F3 ALK-F1174V = experiment: as above; type: cell-based; settings: Mus musculus, BaF3
Protocol: as §1, with “days. On” for “days.On”

Ba/F3 ALK-G1202R = experiment: as above; type: cell-based; settings: Mus musculus, BaF3
Protocol: as §1, with “days. On” for “days.On”

Ba/F3 ALK-L1152R = experiment: as above; type: cell-based; settings: Mus musculus, BaF3
Protocol: as §1, with “days. On” for “days.On”

Ba/F3 ALK-L1196M = experiment: as above; type: cell-based; settings: Mus musculus, BaF3
Protocol: as §1, with “days. On” for “days.On”

Ba/F3 ALK-I1171S = experiment: as above; type: cell-based
Protocol: as §1, with “days. On” for “days.On”

Ba/F3 ALK-F1174C = experiment: as above; type: cell-based
Protocol: as §1, with “days. On” for “days.On”

Ba/F3 ALK-L1152P = experiment: as above; type: cell-based; settings: Mus musculus, BaF3
Protocol: as §1, with “days. On” for “days.On”

Ba/F3 ALK-V1180L = experiment: as above; type: cell-based; settings: Mus musculus, BaF3
Protocol: as §1, with “days. On” for “days.On”

Ba/F3 ALK-I1171N = experiment: as above; type: cell-based; settings: Mus musculus, BaF3
Protocol: as §1, with “days. On” for “days.On”

Ba/F3 ALK-T1151Tins = experiment: as above; type: cell-based; settings: Mus musculus, BaF3
Protocol: as §1, with “days. On” for “days.On”

Ba/F3 ALK-F1174L = experiment: as above; type: cell-based; settings: Mus musculus, BaF3
Protocol: as §1, with “days. On” for “days.On”

Ba/F3 ALK-I1171T = experiment: as above; type: cell-based; settings: Mus musculus, BaF3
Protocol: as §1, with “days. On” for “days.On”

Ba/F3 ALK-G1269A = experiment: as above; type: cell-based; settings: Mus musculus, BaF3
Protocol: as §1, with “days. On” for “days.On”

Question: Which results are given for C[C@@H]1CN(C(=O)c2ccc(NC(=O)c3cc(O[C@H](C)c4c(Cl)ccc(F)c4Cl)c(N)nn3)cc2)C[C@H](C)N1 [Ensartinib]?
Answer: IC50 [1]: 1640 nM; IC50 (Ba/F3 CD74-ROS1-S1986Y): 189 nM; IC50 (Ba/F3 CD74-ROS1-D2033N): 195 nM; IC50 [2]: 278 nM; IC50 (Ba/F3 SLC34A2-ROS1): 49 nM; IC50 (Ba/F3 CD74-ROS1-L1951R): 970 nM; IC50 (Ba/F3 CD74-ROS1-S1986F): 192 nM; rash, % of patients [3]: 56%; ORR ([4]; ALK-rearranged patients): 60%; IC50 (Ba/F3 ALK-G1202del; ALK-G1202del, read-out: IC50): 932 nM; IC50 (Ba/F3 ALK-WT; ALK-WT, read-out: IC50): 14 nM; IC50 (Ba/F3 ALK-C1156Y; ALK-C1156Y, read-out: IC50): 17 nM; IC50 (Ba/F3 ALK-F1174V; ALK-F1174V, read-out: IC50): 54.5 nM; IC50 (Ba/F3 ALK-G1202R; ALK-G1202R, read-out: IC50): 409 nM; IC50 (Ba/F3 ALK-L1152R; ALK-L1152R, read-out: IC50): 71.4 nM; IC50 (Ba/F3 ALK-L1196M; ALK-L1196M, read-out: IC50): 98 nM; IC50 (Ba/F3 ALK-I1171S; Mus musculus, BaF3, ALK-I1171S, first listing (r12), read-out: IC50): 39 nM; IC50 (Ba/F3 ALK-I1171S; Mus musculus, BaF3, ALK-I1171S, second listing (r19), read-out: IC50): 41.5 nM; IC50 (Ba/F3 ALK-F1174C; Mus musculus, BaF3, ALK-F1174C, first listing (r10), read-out: IC50): 62 nM; IC50 (Ba/F3 ALK-F1174C; Mus musculus, BaF3, ALK-F1174C, second listing (r15), read-out: IC50): 62.2 nM; IC50 (Ba/F3 ALK-L1152P; ALK-L1152P, read-out: IC50): 25.7 nM; IC50 (Ba/F3 ALK-V1180L; ALK-V1180L, read-out: IC50): 16.6 nM; IC50 (Ba/F3 ALK-I1171N; ALK-I1171N, read-out: IC50): 18.4 nM; IC50 (Ba/F3 ALK-T1151Tins; ALK-T1151Tins, read-out: IC50): 42 nM; IC50 (Ba/F3 ALK-F1174L; ALK-F1174L, read-out: IC50): 29 nM; IC50 (Ba/F3 ALK-I1171T; ALK-I1171T, read-out: IC50): 28 nM; IC50 (Ba/F3 ALK-G1269A; ALK-G1269A, read-out: IC50): 212 nM

Question: Which IC50 (Ba/F3 CD74-ROS1-S1986Y) does the source give for CCc1cc2c(cc1N1CCC(N3CCOCC3)CC1)C(C)(C)c1[nH]c3cc(C#N)ccc3c1C2=O [Alectinib] here?
Answer: 10000 nM

Question: And the IC50 (Ba/F3 CD74-ROS1-D2033N)?
Answer: 5070 nM

Question: What about the IC50 (Ba/F3 CD74-ROS1-L1951R) of the same compound?
Answer: 5410 nM

Question: What about the IC50 (Ba/F3 CD74-ROS1-S1986F) of the same compound?
Answer: 10000 nM

Question: With C[C@H]1Oc2cc(cnc2N)-c2c(nn(C)c2C#N)CN(C)C(=O)c2ccc(F)cc21 [Lorlatinib] as the compound, how does the IC50 [1] read?
Answer: 197 nM

Question: And the IC50 (Ba/F3 CD74-ROS1-S1986Y)?
Answer: 1.5 nM

Question: And the IC50 (Ba/F3 CD74-ROS1-D2033N)?
Answer: 1.7 nM

Question: What about the IC50 [2] of the same compound?
Answer: < 1 nM

Question: And the IC50 (Ba/F3 SLC34A2-ROS1)?
Answer: < 1 nM

Question: What about the IC50 (Ba/F3 CD74-ROS1-L1951R) of the same compound?
Answer: 5.1 nM

Question: What about the IC50 (Ba/F3 CD74-ROS1-S1986F) of the same compound?
Answer: 1.1 nM

Question: And the ORR ([4]; ALK TKI-naive patients with ROS1 rearrangement)?
Answer: 62%

Question: What about the ORR ([4]; ROS1 rearrangement, crizotinib as the only TKI) of the same compound?
Answer: 35%

Question: What about the IC50 (Ba/F3 ALK-G1202del) of the same compound?
Answer: 215 nM

Question: And the IC50 (Ba/F3 ALK-WT)?
Answer: 4 nM

Question: What about the IC50 (Ba/F3 ALK-C1156Y) of the same compound?
Answer: 4 nM

Question: What about the IC50 (Ba/F3 ALK-F1174V) of the same compound?
Answer: 16.1 nM

Question: What about the IC50 (Ba/F3 ALK-G1202R) of the same compound?
Answer: 26 nM

Question: And the IC50 (Ba/F3 ALK-L1152R)?
Answer: 17.4 nM

Question: And the IC50 (Ba/F3 ALK-L1196M)?
Answer: 54 nM

Question: What about the IC50 (Ba/F3 ALK-I1171S) of the same compound?
Answer: 52.8 nM

Question: What about the IC50 (Ba/F3 ALK-I1171S; Mus musculus, BaF3) of the same compound?
Answer: 33 nM

Question: What about the IC50 (Ba/F3 ALK-F1174C) of the same compound?
Answer: 15.9 nM

Question: What about the IC50 (Ba/F3 ALK-F1174C; Mus musculus, BaF3) of the same compound?
Answer: 11 nM

Question: And the IC50 (Ba/F3 ALK-L1152P)?
Answer: 4.6 nM

Question: And the IC50 (Ba/F3 ALK-V1180L)?
Answer: 5.2 nM

Question: What about the IC50 (Ba/F3 ALK-I1171N) of the same compound?
Answer: 41.1 nM

Question: And the IC50 (Ba/F3 ALK-T1151Tins)?
Answer: 7 nM

Question: And the IC50 (Ba/F3 ALK-F1174L)?
Answer: 4 nM

Question: What about the IC50 (Ba/F3 ALK-I1171T) of the same compound?
Answer: 19 nM

Question: What about the IC50 (Ba/F3 ALK-G1269A) of the same compound?
Answer: 35 nM
